# Results taken from US8318950B2, “N-acyl amino acid derivatives, a method for the preparation thereof, a pharmaceutical composition and use thereof as anti-allergic, anti-inflammatory and hypolipidemic agents” (Otkrytoe Aktsionernoe Obschestvo-Otechestvennye Lekarstva, priority 2005, dated 2012).
# Key:
# [1] = test system: endogenous hypercholesterolemia in guinea pigs; assay: Model of endogenous hypercholesterolemia in guinea pigs (fat loading); assay type: in vivo, guinea pig; details: during 20 days, doses from 50 to 1,500 μg/kg
# [2] = test system: Sephadex A-25 induced pneumonitis in Wistar rats; assay: Sephadex-induced (6-day) pneumonitis in rats; assay type: in vivo, rat
# Protocol: The Model of Sephadex-Induced (6-Day) Pneumonitis in Rats
# Male Wistar rats weighing 270-300 g were used in the tests.
# Inflammation in the lungs was induced by a single inhalation of sephadex A-25 (hydrophilic powder with particle sizes from 20 to 80 μm) at dose 5 mg/kg using a dosing device which is a laboratory analog of the inhaler “Cyclohaler” (the Scientific-Research Institute for Pulmonology of the RF).
# Sephadex A-25 at dose 5 mg per 1 kg body weight was administered to rats under ester anesthesia using an original dosing device for inhalation administering dry powders. Following administration of Sephadex A-25, Wistar rats rapidly recovered form anesthesia, and no peculiarities in their behavior and respiration character were noted. The substances in the form of a dry powder were administered by inhalation at dose 500 μg/kg 1 hour post Sephadex administration, then for 5 days in succession once daily at one and the same morning hours. The control was represented by two groups: a group of intact animals, and a group of rats administered once with Sephadex by inhalation.
# The results of therapeutic action of pharmacological substances on pneumonitis development were assessed using morphological and morphometric parameters (volume density and alveolitis) 6 days post aerosol Sephadex administration.
# Histological examinations of the lungs stained by hematoxyline and eosine.
# 4-5 μm thick histological lung slices were prepared wherein neutrophil number was calculated as well as volume density of alveolitis and emphysema was assessed using the Avtandilov's mesh [Avtandilov G. G., Vvedeniye v kolichestvennuyu pathologicheskuyu morphologiyu.//Moscow. “Meditsina” publishers. 1980. p. 203]. Morphometric examination of pulmonary lymphoid tissue was also carried out. To this end, micro preparations of the lungs were fixed according to the method of Beinenstock et al [Bienenstock J., Johnson N., Perey D. Y. E. Bronchial lymphoid tissue 1. Morphologic characteristics//Lab. Invest. 1973. v. 28 p. 693-698.] […] Volume density of alveolitis and emphysema was determined using the point calculation method.
# Broncho-alveolar wash-off was obtained in rats and guinea pigs under hexenal anesthesia by double washing the lungs through the trachea with 10 ml normal saline. Viability of cells was determined in the test with tryptane blue. Absolute number of cells in 1 ml (cytosis) was determined in the broncho-alveolar wash-off liquid (BAW) using the Goryaev's chamber. In the smears of the BAW liquid precipitate obtained using centrifugation at 200 g for 10 minutes and then stained according to Romanovskcy-Gimza, endopulmonary cytogram was calculated (in percent) [Avtsyn A. P., Lukomskij G. I., Romanova L. K. et al. Endopul'monal'naya cytogramma.//Sov. […]
# [3] = test system: antigen-induced bronchial spasm in sensitized guinea pigs; assay: Systemic anaphylaxis in vivo: antigen-induced bronchial spasm in ovalbumin-sensitized conscious guinea pigs; parameters: species or system guinea pig
# Text: A bronchial spasm model in conscious guinea pigs actively sensitized by exposure to aerosol ovalbumin as an antigen was used [Kovaleva V. L. “Metodicheskiye ukazaniya po izucheniyu bronkholiticheskikh I protivovospalitel'nykh sredstv.//Rukovodstvo po experimental'nomy (doklinicheskomu) izucheniyu novykh pharmacologicheskikh veshchestv, Moscow. 2000. pp. 242-250].
# Guinea pigs were sensitized by ovalbumin according to the method of Andersson [Anderson P. Antigen-induced bronchial anaphylaxis in actively sensitized guinea-pigs.//Allergy. 1980. Vol. 35. P. 63-71] and in 1-2 months following sensitization, bronchial spasm was induced by aerosol administration of albumin booster dose (3 mg/kg in 1 ml normal saline).
# In test groups, guinea pigs were for three days administered with tested compounds at doses 10 μg/kg, 50 μg/kg, and 150 μg/kg, using a probe. In the other group of experiments, the tested compounds at dose 50 μg/kg (in 1 ml normal saline) were administered nasally (using a nebulizer) also once daily for three days. The control group was administered with normal saline. One hour post the last administration of substances, ovalbumin was administered by inhalation using a nebulizer, and intensity and duration (in seconds) of bronchial spasm reaction in animals was assessed.
# [4] = by inhalation, 50 μg/kg, once daily for three days
# [5] = intragastric, 10 μg/kg, three days
# [6] = intragastric, 150 μg/kg, three days
compound,measurement,setting,value
"O=C(O)CCCC(=O)N[C@@H](Cc1c[nH]cn1)C(=O)O [Compound IV, N^α-glutaryl-L-histidine]",lowering total cholesterol level at different doses (FIG. 1),[1],practically similarly effective in lowering total cholesterol level
same,emphysema (histological examination of the lungs),[2]; 500 μg/kg by inhalation,not practically detected
same,infiltration of interalveolar septa with neutrophils,[2]; 500 μg/kg by inhalation,not noted
same,prevalence of alveolitis (histological examination of the lungs),"[2]; compared to the model group, 500 μg/kg by inhalation",significantly lower
same,Absolute number of Macrophags in 1 μl BAW,[2]; dry powder by inhalation 500 μg/kg,152.4 ± 18.5 cells in 1 μl BAW
same,Duration of acute phase,[3]; [4],0 s
same,Duration of sub-acute phase,[3]; [4],400 ± 25 s
same,Duration of acute phase,[3]; [5],68.0 ± 54.7 s
same,Total reaction time,[3]; [5],428.0 ± 75.0 s
same,Duration of acute phase,[3]; [6],72.0 ± 42.1 s
same,Total reaction time,[3]; [6],337.0 ± 78.5 s
